Test results reported in US4293549A, “Quinolinyl guanidines having antiinflammatory, analgesic or antipyretic activity” (Leo Pharmaceutical Products Ltd. A/S (Lovens Kemiske Fabrik, priority 1977, dated 1981).

Assays:
[1] = molecular target: T1, prostaglandin synthetase (Bos taurus, UniProt O62664); assay: Inhibition of prostaglandin synthetase (bovine seminal vesicle homogenate); type: biochemical; details: lyophilized high speed precipitate of bovine seminal vesicle homogenate
T1 construct: lyophilized high speed precipitate of bovine seminal vesicle homogenate as enzyme; from tissue; host or cells: bovine seminal vesicle homogenate, lyophilized high speed precipitate
T1 sequence (O62664 25-600): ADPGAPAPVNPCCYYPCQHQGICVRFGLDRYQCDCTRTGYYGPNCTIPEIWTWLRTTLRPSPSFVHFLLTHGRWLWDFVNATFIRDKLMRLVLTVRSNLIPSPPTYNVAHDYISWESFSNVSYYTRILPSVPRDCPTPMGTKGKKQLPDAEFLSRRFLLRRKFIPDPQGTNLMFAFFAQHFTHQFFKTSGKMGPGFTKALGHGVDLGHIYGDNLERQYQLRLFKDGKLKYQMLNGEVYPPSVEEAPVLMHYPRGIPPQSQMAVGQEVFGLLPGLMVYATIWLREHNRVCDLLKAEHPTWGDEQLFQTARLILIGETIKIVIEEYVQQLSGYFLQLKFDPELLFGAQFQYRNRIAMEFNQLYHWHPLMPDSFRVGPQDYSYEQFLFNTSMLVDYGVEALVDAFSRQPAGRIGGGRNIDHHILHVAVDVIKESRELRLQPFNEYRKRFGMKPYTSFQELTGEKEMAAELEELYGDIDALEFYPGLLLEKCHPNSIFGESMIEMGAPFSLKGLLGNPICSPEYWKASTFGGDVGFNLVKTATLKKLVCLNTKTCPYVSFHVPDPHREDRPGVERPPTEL

[2] = Antipyretic effect in rats; type: in vivo; details: over 180 min
Method: The compounds were orally administered and the antipyretic index evaluated over 180 min. of the experiment.

[3] = Acute toxicity in mice after oral administration; details: mouse, in vivo, p.os, mortality assessed eight days after administration, read-out: LD50 (with confidence limits)
Method: The acute toxicity was determined in mice after oral administration. The mortality was assessed eight days after the administration and the LD50 (dose causing the death of 50% of the animals treated) was calculated according to the statistical method of Litchfield and Wilcoxon (J.Pharmacol.Exp.Ther. 96, 99, (1949)).

[4] = tested on: carrageenin induced edema; assay: Inhibition of carrageenin edema in rats; type: in vivo; details: 1 hr before carrageenin
Method: Inhibitory activity toward carrageenin induced edema was assessed in rats using the technique of Winter C. A., Risley E. A., Nuss C. […] The compounds were orally administered suspended in 0.5% carboxymethylcellulose to 18 hrs fasting animals, 1 hr before the injection of carrageenin.

[5] = tested on: pain threshold; assay: Analgetic effect in rats (Randall and Selitto); type: in vivo; details: 2 hrs after administration
[6] = tested on: adjuvant induced arthritis; assay: Inhibition of adjuvant induced arthritis in rats; type: in vivo
Source text: The compounds were orally administered suspended in 0.5% carboxymethylcellulose, daily, from the day of adjuvant injection to 28 days later.

[7] = tested on: stomachs; assay: Gastro ulcerogenic activity in rats; type: in vivo; details: 24 hrs; for Mean severity: scale 0=no lesion to +4=perforation
Method: Rats fasted for 9 hrs before treatment were given different doses of the compounds. 24 hrs later the animals were killed, the stomachs were removed, opened along the lesser curvature and gross examined for the presence of lesions and their severity. The severity was assessed according to an arbitrary scale from 0=no lesion to +4=perforation.

In the case of `Cc1cc(/N=C(\Nc2nccs2)NC2CCCCC2)c2ccccc2n1` [SR 1368, N-Cyclohexyl-N"-4-(2-methylquinolyl)-N'-2-thiazolylguanidine], the IC50 [1] is reported as 2.46 µM, the Antipyretic index ([2]; oral dose 25 mg/kg) is reported as 2.2 and the Antipyretic index ([2]; oral dose 50 mg/kg) is reported as 5.6. For the same molecule, the LD50 at 192 h [3] was greater than 1000 mg/kg, the “% Inhibition 3 hrs after carrageenin” value ([4]; oral dose 25 mg/kg) was 40% and the “% Inhibition 3 hrs after carrageenin” value ([4]; oral dose 50 mg/kg) was 62%. For the same molecule, the “% Inhibition 3 hrs after carrageenin” value ([4]; oral dose 100 mg/kg) was 71%, the “Increase of pain threshold” value ([5]; oral dose 10 mg/kg) was 12 mmHg and the “Increase of pain threshold” value ([5]; oral dose 30 mg/kg) was 31 mmHg. For the same molecule, the “Increase of pain threshold” value ([5]; oral dose 90 mg/kg) was 68 mmHg, the “% Inhibition of the swelling, 18th day, primary” value (“% Inhibition … 18th day, primary” below) ([6]; daily oral dose 5 mg/kg) was 23.5% and the “% Inhibition of the swelling, 18th day, secondary” value (from here on “% Inhibition … 18th day, secondary”) ([6]; daily oral dose 5 mg/kg) was 14.9%. The “% Inhibition of the swelling, 28th day, primary” value (“% Inhibition … 28th day, primary” for short) ([6]; daily oral dose 5 mg/kg) was 21.4%, the “% Inhibition of the swelling, 28th day, secondary” value (shortened to “% Inhibition … 28th day, secondary”) ([6]; daily oral dose 5 mg/kg) was 32.1% and the “% Inhibition … 18th day, primary” value ([6]; daily oral dose 10 mg/kg) was 29.2%. For the same molecule, the “% Inhibition … 18th day, secondary” value ([6]; daily oral dose 10 mg/kg) was 54.4%, the “% Inhibition … 28th day, primary” value ([6]; daily oral dose 10 mg/kg) was 42.7% and the “% Inhibition … 28th day, secondary” value ([6]; daily oral dose 10 mg/kg) was 68.7%. The “% Inhibition … 18th day, primary” value ([6]; daily oral dose 30 mg/kg) was 44.2%, the “% Inhibition … 18th day, secondary” value ([6]; daily oral dose 30 mg/kg) was 53.2% and the “% Inhibition … 28th day, primary” value ([6]; daily oral dose 30 mg/kg) was 69.4%. For the same molecule, the “% Inhibition … 28th day, secondary” value ([6]; daily oral dose 30 mg/kg) was 69.2%, the “% Inhibition … 18th day, primary” value ([6]; daily oral dose 60 mg/kg) was 51.6% and the “% Inhibition … 18th day, secondary” value ([6]; daily oral dose 60 mg/kg) was 73.4%. For the same molecule, the “% Inhibition … 28th day, primary” value ([6]; daily oral dose 60 mg/kg) was 74.2%, the “% Inhibition … 28th day, secondary” value ([6]; daily oral dose 60 mg/kg) was 82.6% and the “% with lesions” value ([7]; oral dose 25 mg/kg) was 0%. For the same molecule, the Mean severity ([7]; oral dose 25 mg/kg) was 0, the “% with lesions” value ([7]; oral dose 50 mg/kg) was 20% and the Mean severity ([7]; oral dose 50 mg/kg) was 0.9. The “% with lesions” value ([7]; oral dose 100 mg/kg) was 40% and the Mean severity ([7]; oral dose 100 mg/kg) was 1.7.

For `COc1ccc2c(c1)c(CC(=O)O)c(C)n2C(=O)c1ccc(Cl)cc1` [Indomethacin, reference compound], the LD50 at 192 h [3] was 23 mg/kg, the “% Inhibition 3 hrs after carrageenin” value ([4]; oral dose 0.5 mg/kg) was 34% and the “% Inhibition 3 hrs after carrageenin” value ([4]; oral dose 1 mg/kg) was 42%. For the same molecule, the “% Inhibition 3 hrs after carrageenin” value ([4]; oral dose 10 mg/kg) was 65%, the “Increase of pain threshold” value ([5]; oral dose 1 mg/kg) was 19 mmHg and the “Increase of pain threshold” value ([5]; oral dose 3 mg/kg) was 34 mmHg. The “% Inhibition … 18th day, primary” value ([6]; daily oral dose 0.3 mg/kg) was 20.3%, the “% Inhibition … 18th day, secondary” value ([6]; daily oral dose 0.3 mg/kg) was 13.5% and the “% Inhibition … 28th day, primary” value ([6]; daily oral dose 0.3 mg/kg) was 25.9%. The “% Inhibition … 28th day, secondary” value ([6]; daily oral dose 0.3 mg/kg) was 29.7%, the “% Inhibition … 18th day, primary” value ([6]; daily oral dose 1 mg/kg) was 62.4% and the “% Inhibition … 18th day, secondary” value ([6]; daily oral dose 1 mg/kg) was 66.2%. For the same molecule, the “% Inhibition … 28th day, primary” value ([6]; daily oral dose 1 mg/kg) was 80.5%, the “% Inhibition … 28th day, secondary” value ([6]; daily oral dose 1 mg/kg) was 76.8% and the “% with lesions” value ([7]; oral dose 5 mg/kg) was 20%. For the same molecule, the Mean severity ([7]; oral dose 5 mg/kg) was 1.3, the “% with lesions” value ([7]; oral dose 10 mg/kg) was 70% and the Mean severity ([7]; oral dose 10 mg/kg) was 2.8.
